Several values for one entry are separate records, joined by “and”; a condition that tells them apart may be missing. Equal values may be shown once.
Tested on: C. acetobutylicum ATCC 824
Experiment: Sequential batch cultures of C. acetobutylicum ATCC 824 grown at 30° C. in YEPG (growth OD600, final pH, ceric ion reactive compounds)
Type: cell-based, Clostridium acetobutylicum
Conditions: for Final pH / Optical density at 600 nm / Optical density of ceric ion reactive compounds measured at 500 nm: 96 h culture
Experimental: Clostridium acetobutylicum ATCC 824 and C. beijerinckii NCIMB 8052 are available from several commercial microbial culture collections including the American Type Culture Collection (ATCC), Manassas, Va., USA. The strain grown at 30 C or 37 C in YE broth, which contained, per liter: 5.0 g yeast extract, 2.5 g casamino acids, 1.0 g L-asparagine, 0.5 g cysteine·HCl, 56 mg K2HPO4, 56 mg KH2PO4, 82 mg anhydrous MgSO4, 8 mg FeSO4.H2O, 6 mg MnSO4.H2O and 10 g glucose. Alternatively, strains were grown in YEPG broth, which was identical to YE expect that K2HPO4 and KH2PO4 were increased to 145 mg/L each and glucose was increased to 60 g/L. The pH of the media was adjusted to 7.2 using 45% KOH prior to sterilization by autoclaving. Media were solidified by addition of 1.5% Bacteriological Agar, Acumedia Manufacturers, Inc., Lansing, Mich. All cultures were grown in anaerobic conditions using the AnaeroPack System, Mitsubishi Gas Chemical Co., Inc., Japan, and GasPak EZ Gas Generating Sachets, Becton, Dickinson and Co., Sparks, Md. Spore stocks were kept at room temperature on agar-solidified media and were activated by suspending spores in 0.5 mL to 1.0 mL of medium followed by heating for 10 min at 80 C before inoculation into growth medium.
Growth of bacterial cultures was measured spectrophotometrically using optical density at 600 nm and pH of cell-free culture supernatants was measured using a hand-held Shindengen ISFET pH Meter KS501, Shendengen Electric Manufacturing Co., Ltd., Bannockburn, Ill.
Total alcohols in cell-free culture supernatants were measured using a modification of a colorimetric method based on ceric ammonium nitrate (Reid and Truelove, 1952). The ceric ion reagent was prepared by adding 1.3 mL of concentrated nitric acid to 40 mL of distilled water, then 10.96 g of ceric ammonium nitrate was dissolved in the dilute nitric acid solution and the solution was brought to a final volume of 50 mL. For the assay, […] of butanol standard or culture supernatant was mixed with […] distilled water in a disposable plastic cuvette followed by addition of […] of the ceric ion reagent. The sample was mixed by inverting the cuvette six times then exactly two minutes later the optical density at 500 nm wavelength was measured. The concentration of total alcohols was determined by comparison with a standard curve prepared by using butanol diluted in distilled water.
Spores of C. acetobutylicum ATCC 824 were germinated and grown overnight at 30 C under anaerobic conditions in YEPG medium. After about 24 h of growth, […] of the culture was transferred (transfer 1) to each of four flasks that contained 10 mL of YEPG and either had no treatment or were treated with peptide SEQ ID NO: 143 (see Table 8 and FIG. 1) at 1 nM, 10 nM or 50 nM. Thereafter, […] of each culture was transferred, at the same time, every 24-48 h to 10 mL of fresh YEPG that contained the same peptide treatment or no treatment. Each culture was stopped after 96 hours of incubation and optical density, pH and ceric ion reactive chemicals were measured. Sequential batch culturing was continued through 5 transfers at which point the untreated culture and those treated with 1 nM and 10 nM of peptide SEQ ID NO: 143 had stopped growing (Table 9). […] In addition, treatment with 1 nM of peptide SEQ ID NO: 143 appeared to stop growth at the first transfer, but growth was restored in the second and third transfers.

Substance: SYPGWSW [peptide SEQ ID NO: 143]
- Extension of growth during sequential batch cultures (1 nM, 30 °C, untreated culture stopped earlier): growth through the third transfer
- Final pH (1 nM, transfer 1, 30 °C): 6.0
- Optical density at 600 nm (1 nM, transfer 1, 30 °C): 0.005
- Optical density of ceric ion reactive compounds measured at 500 nm (1 nM, transfer 1, 30 °C): 0.048
- Final pH (1 nM, transfer 2, 30 °C): 4.4
- Optical density at 600 nm (1 nM, transfer 2, 30 °C): 2.274
- Optical density of ceric ion reactive compounds measured at 500 nm (1 nM, transfer 2, 30 °C): 0.119
- Final pH (1 nM, transfer 3, 30 °C): 4.4
- Optical density at 600 nm (1 nM, transfer 3, 30 °C): 2.165
- Optical density of ceric ion reactive compounds measured at 500 nm (1 nM, transfer 3, 30 °C): 0.167
- Final pH (1 nM, transfer 4, 30 °C): 6.0
- Optical density at 600 nm (1 nM, transfer 4, 30 °C): 0.044
- Optical density of ceric ion reactive compounds measured at 500 nm (1 nM, transfer 4, 30 °C): 0.031
- Final pH (1 nM, transfer 5, 30 °C): 6.0
- Optical density at 600 nm (1 nM, transfer 5, 30 °C): 0.004
- Optical density of ceric ion reactive compounds measured at 500 nm (1 nM, transfer 5, 30 °C): 0.040
- Extension of growth during sequential batch cultures (10 nM, 30 °C): growth through the fourth transfer
- Final pH (10 nM, transfer 1, 30 °C): 4.4
- Optical density at 600 nm (10 nM, transfer 1, 30 °C): 2.001
- Optical density of ceric ion reactive compounds measured at 500 nm (10 nM, transfer 1, 30 °C): 0.175
- Final pH (10 nM, transfer 2, 30 °C): 4.4
- Optical density at 600 nm (10 nM, transfer 2, 30 °C): 2.245
- Optical density of ceric ion reactive compounds measured at 500 nm (10 nM, transfer 2, 30 °C): 0.184
- Final pH (10 nM, transfer 3, 30 °C): 4.5
- Optical density at 600 nm (10 nM, transfer 3, 30 °C): 2.379
- Optical density of ceric ion reactive compounds measured at 500 nm (10 nM, transfer 3, 30 °C): 0.187
- Final pH (10 nM, transfer 4, 30 °C): 4.5
- Optical density at 600 nm (10 nM, transfer 4, 30 °C): 2.266
- Optical density of ceric ion reactive compounds measured at 500 nm (10 nM, transfer 4, 30 °C): 0.192
- Final pH (10 nM, transfer 5, 30 °C): 5.9 and 6.0
- Optical density at 600 nm (10 nM, transfer 5, 30 °C): 0.028
- Optical density of ceric ion reactive compounds measured at 500 nm (10 nM, transfer 5, 30 °C): 0.043
- Extension of growth during sequential batch cultures (50 nM, 30 °C): growth through the fifth transfer
- Final pH (50 nM, transfer 1, 30 °C): 4.4
- Optical density at 600 nm (50 nM, transfer 1, 30 °C): 1.879
- Optical density of ceric ion reactive compounds measured at 500 nm (50 nM, transfer 1, 30 °C): 0.159
- Final pH (50 nM, transfer 2, 30 °C): 4.6
- Optical density at 600 nm (50 nM, transfer 2, 30 °C): 2.089
- Optical density of ceric ion reactive compounds measured at 500 nm (50 nM, transfer 2, 30 °C): 0.189
- Final pH (50 nM, transfer 3, 30 °C): 4.5
- Optical density at 600 nm (50 nM, transfer 3, 30 °C): 2.313
- Optical density of ceric ion reactive compounds measured at 500 nm (50 nM, transfer 3, 30 °C): 0.183
- Final pH (50 nM, transfer 4, 30 °C): 4.4
- Optical density at 600 nm (50 nM, transfer 4, 30 °C): 2.187
- Optical density of ceric ion reactive compounds measured at 500 nm (50 nM, transfer 4, 30 °C): 0.187
- Final pH (50 nM, transfer 5, 30 °C): 4.3
- Optical density at 600 nm (50 nM, transfer 5, 30 °C): 2.173
- Optical density of ceric ion reactive compounds measured at 500 nm (50 nM, transfer 5, 30 °C): 0.174
- Culture degeneration in terms of number of sequential transfers and production of total alcohols (30 °C): prevent culture degeneration
- Number of additional sequential transfers versus a culture without added peptide (30 °C): at least four more times
- Expected extension of time in continuous culture (extrapolated from sequential batch transfers, dilution rate of 0.05/hour): about five-fold
- Expected time in continuous culture (extrapolated from sequential batch transfers, dilution rate of 0.05/hour, from about 140 hours without peptide): about 700 hours
